This is an account of results in ChEMBL document CHEMBL2074406, “Single amino acid substitutions in the transmembrane domains of breast cancer resistance protein (BCRP) alter cross resistance patterns in transfectants” (Int J Cancer, 2003).

The target of this data set is T1, Broad substrate specificity ATP-binding cassette transporter ABCG2 (Homo sapiens, UniProt Q9UNQ0).
T1 sequence (Q9UNQ0 whole entry): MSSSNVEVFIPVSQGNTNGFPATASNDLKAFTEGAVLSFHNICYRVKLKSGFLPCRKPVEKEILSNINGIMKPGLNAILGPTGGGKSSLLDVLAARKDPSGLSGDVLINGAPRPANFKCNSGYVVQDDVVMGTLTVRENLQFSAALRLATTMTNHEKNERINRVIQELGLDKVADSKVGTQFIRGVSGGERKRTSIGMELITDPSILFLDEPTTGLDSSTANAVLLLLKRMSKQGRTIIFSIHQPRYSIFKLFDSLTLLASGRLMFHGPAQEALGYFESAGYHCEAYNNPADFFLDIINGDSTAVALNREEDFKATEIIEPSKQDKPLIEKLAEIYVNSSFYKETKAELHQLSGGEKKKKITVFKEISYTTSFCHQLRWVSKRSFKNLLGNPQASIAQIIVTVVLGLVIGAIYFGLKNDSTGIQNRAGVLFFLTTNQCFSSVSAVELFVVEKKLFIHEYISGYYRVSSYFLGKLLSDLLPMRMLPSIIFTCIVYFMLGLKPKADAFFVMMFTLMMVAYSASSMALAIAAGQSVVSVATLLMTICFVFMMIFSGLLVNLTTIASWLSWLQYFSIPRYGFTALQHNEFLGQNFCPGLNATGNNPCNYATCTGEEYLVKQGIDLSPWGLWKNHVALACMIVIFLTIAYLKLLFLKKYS
Nature of the data set: TP_TRANSPORTER: drug resistance in BCRP-expressing PA317 cells. It is filed as functional, cell-based. The settings on record: mouse.

As to `CCc1c2c(nc3ccc(O)cc13)-c1cc3c(c(=O)n1C2)COC(=O)[C@]3(O)CC` [7-ETHYL-10-HYDROXYCAMPTOTHECIN], the Activity result is “substrate []”. With `C[C@]12CC[C@@H]3c4ccc(O)cc4CC[C@H]3[C@@H]1CCC2=O` [ESTRONE] the entry was “inhibitor []”. With `COc1ccc2c3c([nH]c2c1)[C@H](C=C(C)C)N1C(=O)[C@@H]2CCCN2C(=O)[C@@H]1C3` [FUMITREMORGIN] the entry was “inhibitor []”; with `O=C1c2c(O)ccc(O)c2C(=O)c2c(NCCNCCO)ccc(NCCNCCO)c21` [MITOXANTRONE], “substrate []”.
